Key:
[1] = biological target: T1, MHC-II DRB1*11:01 (Homo sapiens, UniProt P01903+P01911, A100R/A169T/A87E/I96F/K41T/L162R/M171V/P40S/Q125H/Q178H/Q39Y/Q99D/R42S/S66Y/T262R/V115G/W38E); experiment: Cell-free REVEAL class II stability assay; settings: half-life of peptide-MHC-II complex (h, capped at 120) x Binding Score / 100, conformational ELISA
Procedure: (§1) We measured the half-life of each peptide-MHC-II complex using REVEAL peptide-MHC affinity assays developed by ProImmune Ltd. (Oxford, UK). On-rates of peptides were measured over a 96-hr period at 10°C. A unique positive control peptide was used for each MHC-II allele. Samples of assembling peptide-MHC complexes were taken at defined time points and snap-frozen in liquid nitrogen prior to analysis. Assembly of peptide-MHC complexes was detected using a conformational ELISA involving an anti-HLA antibody. On-rates were calculated by fitting data to a one-phase association curve: [drawing 1] To determine the off-rates of the peptides, samples of dissociating complexes were taken at defined time points and frozen in liquid nitrogen prior to analysis. Percent denaturation of peptide-MHC complexes was also detected using a conformational ELISA. Off-rates were calculated by fitting data to a one-phase dissociation curve: [drawing 2] On- and off-rate half-life values (t1/2) were calculated from the rate constant (k) using the following equation: [drawing 3] To obtain a normalized stability score, the half-life values were multiplied by the Binding Score (see above) and divided by 100.

[2] = biological target: T2, MHC-II DRB1*15:01 (Homo sapiens, UniProt P01903+P01911); experiment: Cell-free REVEAL class II stability assay; settings: half-life of peptide-MHC-II complex (h, capped at 120) x Binding Score / 100, conformational ELISA
T2 construct: purchased ProImmune
Procedure: as §1

[3] = biological target: T3, MHC-II DRB1*03:01 (Homo sapiens, UniProt P01903+P01911, A100K/A102G/A103R/A169T/F55Y/I96L/K41T/L162R/M171V/P40S/Q125H/Q178H/Q39Y/R42S/S66N/T106N/T262R/W38E/Y61H); experiment: Cell-free REVEAL class II stability assay; settings: half-life of peptide-MHC-II complex (h, capped at 120) x Binding Score / 100, conformational ELISA
T3 sequence (P01903 26-254 limits assumed, other chains not shown): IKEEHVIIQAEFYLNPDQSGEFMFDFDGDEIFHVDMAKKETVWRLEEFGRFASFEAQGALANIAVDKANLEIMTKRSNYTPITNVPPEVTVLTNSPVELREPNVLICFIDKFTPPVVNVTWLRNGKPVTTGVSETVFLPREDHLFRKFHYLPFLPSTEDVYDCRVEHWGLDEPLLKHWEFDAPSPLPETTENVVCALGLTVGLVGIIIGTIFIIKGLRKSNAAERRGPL
Procedure: as §1

[4] = biological target: T4, MHC-II DRB1*04:01 (Homo sapiens, UniProt P01903+P01911, A100K/A169T/F76Y/I96L/K127E/L162R/M171V/N62H/P40V/Q125Y/R42H/S133A/S149N/S66Y/V115G/V209L/W38E); experiment: Cell-free REVEAL class II stability assay; settings: half-life of peptide-MHC-II complex (h, capped at 120) x Binding Score / 100, conformational ELISA
Procedure: as §1

[5] = biological target: T5, MHC-II DRB1*15:03 (Homo sapiens, UniProt P01903+P01911, Y59H); experiment: Cell-free REVEAL class II stability assay; settings: half-life of peptide-MHC-II complex (h, capped at 120) x Binding Score / 100, conformational ELISA
T5 construct: purchased ProImmune
T5 sequence (P01903 26-254, other chains not shown): as the sequence (P01903 26-254 limits assumed, other chains not shown) above
Procedure: as §1

[6] = biological target: T6, MHC-II DRB1*07:01 (Homo sapiens, UniProt P01903+P01911, A100R/A102G/A103Q/D57E/D86V/E43K/F76Y/K127E/L162R/M171V/P40G/Q125H/Q99D/R33Q/R42Y/R54Q/S133A/S66F/T210M/V115G/Y107V/Y59L/Y89S); experiment: Cell-free REVEAL class II stability assay; settings: half-life of peptide-MHC-II complex (h, capped at 120) x Binding Score / 100, conformational ELISA
Procedure: as §1

[7] = biological target: T1, MHC-II DRB1*11:01; experiment: Cell-free REVEAL class II binding assay; settings: signal of test peptide as percentage of allele-specific positive control peptide, fluorescence, conformation-specific monoclonal antibody
Excerpt: (§2) We used a proprietary high throughput, REVEAL binding assay (ProImmune, www.proimmune.com) to estimate the binding of individual test peptides to the following MHC-II variants: DRB1*03:01, DRB1*04:01, DRB1*07:01, DRB1*11:01, DRB1*15:01 and DRB1*15:03 [28]. Detection of a peptide binding to each MHC-II protein is based on the presence or absence of the native conformation of the MHC-peptide complex. The peptide-MHC-II complex is detected by an increase in a fluorescence signal due to the binding of a specific monoclonal antibody. Each test-peptide is given a score relative to a positive control peptide, which is a known T-cell epitope for that MHC-II molecule. The score is reported quantitatively as a percentage of the signal generated by the test peptide compared with the positive control peptide. Assay performance is evaluated by including in each set of measurements an intermediate control peptide which is known to bind the MHC-II molecule but with a lower affinity than the positive control peptide. Note that the positive control peptide used to determine the binding score is different from the positive control peptides depicted in the figures, which are known T-cell epitopes identified in the FVIII molecule.

[8] = biological target: T2, MHC-II DRB1*15:01; experiment: Cell-free REVEAL class II binding assay; settings: signal of test peptide as percentage of allele-specific positive control peptide, fluorescence, conformation-specific monoclonal antibody
Excerpt: as §2

[9] = biological target: T3, MHC-II DRB1*03:01; experiment: Cell-free REVEAL class II binding assay; settings: signal of test peptide as percentage of allele-specific positive control peptide, fluorescence, conformation-specific monoclonal antibody
Excerpt: as §2

[10] = biological target: T4, MHC-II DRB1*04:01; experiment: Cell-free REVEAL class II binding assay; settings: signal of test peptide as percentage of allele-specific positive control peptide, fluorescence, conformation-specific monoclonal antibody
Excerpt: as §2

[11] = biological target: T5, MHC-II DRB1*15:03; experiment: Cell-free REVEAL class II binding assay; settings: signal of test peptide as percentage of allele-specific positive control peptide, fluorescence, conformation-specific monoclonal antibody
Excerpt: as §2

[12] = biological target: T6, MHC-II DRB1*07:01; experiment: Cell-free REVEAL class II binding assay; settings: signal of test peptide as percentage of allele-specific positive control peptide, fluorescence, conformation-specific monoclonal antibody
Excerpt: as §2

T1 sequence (P01903 26-254 limits assumed, other chains not shown): as above

Sequence | Stability Index [1] | Stability Index [2] | Stability Index [3] | Stability Index [4] | Stability Index [5] | Stability Index [6] | Binding Score [7] [%] | Binding Score [8] [%] | Binding Score [9] [%] | Binding Score [10] [%] | Binding Score [11] [%] | Binding Score [12] [%]
KTDPWFAHRTPMPKI [synthetic wild type FVIII 15 mer peptide, region of ns-SNP R776G] | 0.1 | 0.1 | 0.0 | 0.5 | 0.0 | 1.2 | 0.5 | 0.1 | 0.0 | 8.2 | 0.2 | 4.0
LFLLSTRQNVEGSYD [synthetic wild type FVIII 15 mer peptide, region of ns-SNP D1241E] | 23.6 | 0.1 | 17.5 | 2.8 | 0.0 | 0.3 | 92.0 | 1.0 | 30.5 | 17.9 | 0.2 | 0.3
LQVDFQKTMKVTGVT [synthetic wild type FVIII 15 mer peptide, region of ns-SNP M2238V] | 62.0 | 0.3 | 13.5 | 0.9 | 0.0 | 0.1 | 235.0 | 4.4 | 30.7 | 11.6 | 1.5 | 0.1
LSTRQNVEGSYDGAY [synthetic wild type FVIII 15 mer peptide, region of ns-SNP D1241E] | 0.0 | 0.0 | 0.0 | 3.2 | 0.0 | 0.0 | 0.2 | 0.0 | 0.0 | 15.2 | 0.0 | 0.0
MKVTGVTTQGVKSLL [synthetic wild type FVIII 15 mer peptide, region of ns-SNP M2238V] | 0.0 | 0.8 | 0.0 | 0.8 | 0.0 | 0.0 | 0.1 | 1.4 | 0.0 | 7.8 | 0.0 | 0.0
NNPKEWLQVDFQKTM [synthetic wild type FVIII 15 mer peptide, region of ns-SNP M2238V] | 0.1 | 0.2 | 0.0 | 0.1 | 0.1 | 0.1 | 3.5 | 0.1 | 12.6 | 1.7 | 0.1 | 0.6
PENDIEKTDPWFAHR [synthetic wild type FVIII 15 mer peptide, region of ns-SNP R776G] | 0.1 | 0.1 | 0.0 | 0.1 | 0.0 | 0.0 | 2.9 | 0.1 | 0.0 | 0.7 | 0.3 | 0.0
PIIARYIRLHPTHYS [synthetic wild type FVIII 15 mer peptide] | 9.0 | 1100.9 | 0.0 | 6.9 | 13.3 | 0.0 | 118.8 | 917.4 | 0.3 | 25.4 | 11.1 | 0.0
PLLTRYLRIHPQSWV [synthetic wild type FVIII 15 mer peptide] | 8.8 | 857.7 | 0.0 | 1.4 | 12.8 | 2.0 | 62.8 | 714.7 | 0.0 | 12.1 | 10.7 | 1.7

Reference: article PMC3656107, “Polymorphisms in the F8 Gene and MHC-II Variants as Risk Factors for the Development of Inhibitory Anti-Factor VIII Antibodies during the Treatment of Hemophilia A: A Computational Assessment” (PLoS Computational Biology, 2013)
